Like-named read-outs stand apart in the source and are kept apart here.
Assays:
Assay type in all cases: cell-based
[1] = test system: NB4 human promyelocytic leukaemia cells; test: Cytotoxicity (sulphorodamine B) on NB4 tumour cells
Description: (§1) To test the effects of the compounds on cell growth, NB4 human promyelocytic leukaemia, NCI-H460 non-small cell carcinoma cells and HCT-116 human colon carcinoma cells were used. NB4 and NCI-H460 tumour cells were grown RPMI 1640 containing 10% fetal bovine serum (GIBCO), whereas HCT-116 tumour cells were grown in McCoy's 5A containing 10% fetal bovine serum (GIBCO).
(§2) Tumour cells were seeded in 96-well tissue culture plates (Corning) at approximately 10% confluence and were allowed to attach and recover for at least 24 h. Varying concentrations of the drugs were then added to each well to calculate their IC50 value (the concentration which inhibits the 50% of cell survival). The plates were incubated for 24 h at 37° C. At the end of the treatment, for NB4 tumour cells in suspension, the procedure was performed as follows: medium culture was removed by centrifugation of the plates at 1600×g for 10 min and the surnatant was removed. 250 μl PBS were added, then the plates were centrifuged at 1600×g for 10 min, the surnatant was removed. 200 μl/well of medium culture RPMI 1640 containing 10% FCS were added and the plates were incubated at 37° C. for other 48 h. The plates were centrifuged again at 1600×g for 10 min, the medium culture was removed and 200 μl PBS and 50 μl of cold 80% TCA were added. The plates were incubated on ice for at least 1 h. TCA was removed, the plates were washed 3 times for immersion in distilled-water and dried on paper and at 40° C. for 5 min. Then 200 μl of 0.4% sulphorodamine B in 1% acetic acid were added. The plates were incubated at room temperature for other 30 min. Sulphorodamine B was removed, the plates were washed for immersion in 1% acetic acid for 3 times, then they were dried on paper and at 40° C. for 5 min. Then 200 μl Tris 10 mM were added, the plates were kept under stirring for 20 min. The survival cell was determined as optical density by a Multiskan spectrofluorimeter at 540 nm. For the tumour cells in adhesion (NCI-H460 and HCT-116), the procedure was as above mentioned, except that at the end of the treatment, the plates were washed by remotion of the surnatant and addition of PBS 3 times without centrifugation. Also the last day of the assay, the surnatant was removed without centrifugation.
(§3) The amount of cells killed was calculated as the percentage decrease in sulphorodamine B binding compared with control cultures. The IC50 values (the concentration which inhibits the 50% of cell survival) were calculated with the “ALLFIT” program.

[2] = test system: NCI-H460 non-small cell carcinoma cells; test: Cytotoxicity (sulphorodamine B) on NCI-H460 tumour cells; conditions: Homo sapiens
Description: as §1, §2, §3

[3] = test system: HCT-116 human colon carcinoma cells; test: Cytotoxicity (sulphorodamine B) on HCT-116 tumour cells; conditions: HCT-116 cells, 24 h treatment then 48 h recovery, read-out: HCT-116 IC50 ± SD
Description: as §1, §2, §3

[4] = Homo sapiens, NB-4, NB4 cells, 24 h treatment then 48 h recovery, sulphorodamine B, read-out: NB4 IC50 ± SD
[5] = Homo sapiens, range stated jointly for NB4, NCI-H460 and HCT-116, minor cytotoxicity, read-out: IC50 values on NB4 or NCI-H460 and HCT-116 (range given)
[6] = NCI-H460 cells, 24 h treatment then 48 h recovery, sulphorodamine B, read-out: NCI-H460 IC50 ± SD
[7] = NB4 cells, 24 h treatment then 48 h recovery, sulphorodamine B, read-out: NB4 IC50 ± SD
[8] = range stated jointly for NCI-H460 non-small cell lung cancer and HCT-116 colon cancer, read-out: IC50 values on NCI-H460 and HCT-116 (range given)

Row | Structure (SMILES) | IC50 [1, 4] [nM] | IC50 [1, 5] [nM] | IC50 [2, 6] [nM] | IC50 [1, 7] [nM] | IC50 [2, 8] [nM] | IC50 [3] [nM]
1 | O=C(CCC(c1c[nH]c2ccccc12)c1c[nH]c2ccccc12)NO [ST2408, N-Hydroxy-4,4-bis-(1H-indol-3-yl)-butyramide] | 14600 ± 600 | 8800 to 88800 | 25900 ± 300 | – | – | –
2 | O=C(CCCCCC(c1c[nH]c2ccccc12)c1c[nH]c2ccccc12)NO [ST2741, 7,7-Bis-(1H-indol-3-yl)-heptanoic acid hydroxyamide] | 400 to 2300 | – | 1200 ± 100 | 600 ± 10 | 600 to 5800 | 600 ± 20
3 | O=C(CCCC(c1c[nH]c2ccccc12)c1c[nH]c2ccccc12)NO [ST2743, 5,5-Bis-(1H-indol-3-yl)-pentanoic acid hydroxyamide] | – | 8800 to 88800 | 88800 ± 2800 | – | – | –
4 | O=C(CCCCC(c1c[nH]c2ccccc12)c1c[nH]c2ccccc12)NO [ST2754, 6,6-Bis-(1H-indol-3-yl)-hexanoic acid hydroxyamide] | – | – | 5200 ± 300 | – | 600 to 5800 | 5800 ± 200
5 | O=C(C=Cc1ccc(C(c2c[nH]c3ccccc23)c2c[nH]c3ccccc23)cc1)NO [ST2887, 3-{4-[Bis-(1H-indol-3-yl)-methyl]-phenyl}-N-hydroxy-acrylamide] | 400 to 2300 | – | 2600 ± 300 | 600 ± 10 | 600 to 5800 | 3900 ± 500
6 | O=C(CCCCCCC(c1c[nH]c2ccccc12)c1c[nH]c2ccccc12)NO [ST2889, 8,8-Bis-(1H-indol-3-yl)-octanoic acid hydroxyamide] | – | – | 2700 ± 200 | – | 600 to 5800 | 3500 ± 200
7 | O=C(CCCCCc1c[nH]c2ccccc12)NO [ST2995, N-hydroxy-6-(1H-indol-3-yl)hexanamide] | 8800 ± 500 | 8800 to 88800 | 22000 ± 1700 | – | – | –
8 | COc1cccc2c(C(CCCCCC(=O)NO)c3c[nH]c4c(OC)cccc34)c[nH]c12 [ST3043, 7,7-Bis-(7-methoxy-1H-indol-3-yl)-heptanoic acid hydroxyamide] | 400 to 2300 | – | 550 ± 30 | 800 ± 10 | 270 to 700 | 410 ± 30
9 | Cc1ccc2[nH]cc(C(CCCCCC(=O)NO)c3c[nH]c4ccc(C)cc34)c2c1 [ST3044, 7,7-Bis-(5-methyl-1H-indol-3-yl)-heptanoic acid hydroxyamide] | 150 | – | 510 ± 100 | – | 270 to 700 | 270 ± 10
10 | O=C(CCCCCC(c1c[nH]c2cccc(F)c12)c1c[nH]c2cccc(F)c12)NO [ST3052, 7,7-Bis-(4-fluoro-1H-indol-3-yl)-heptanoic acid hydroxyamide] | 400 to 2300 | – | 700 ± 90 | 600 ± 90 | 270 to 700 | 400 ± 100
11 | O=C(O)CCCCCC(c1c[nH]c2ccccc12)c1c[nH]c2ccccc12 [ST3127, 7,7-Bis-(1H-indol-3-yl)-heptanoic acid] | > 20000 | 8800 to 88800 | > 20000 | – | – | > 20000
12 | O=C(CCCCCC(c1cc2ccccc2[nH]1)c1c[nH]c2ccccc12)NO (centres unmarked) [ST3292, 7-(1H-Indol-3-yl)-7-(1H-indol-2-yl)-heptanoic acid hydroxyamide] | 400 to 2300 | – | 820 ± 70 | 670 ± 10 | 600 to 5800 | –
13 | O=C(CCCCCC(C1C=Nc2ccc(CN3CCOCC3)cc21)C1C=Nc2ccc(CN3CCOCC3)cc21)NO (centres unmarked) [ST3307, 7,7-Bis-(5-morpholin-4-ylmethyl-3H-indol-3-yl)-heptanoic acid hydroxyamide] | 400 to 2300 | – | 1100 ± 100 | 420 ± 20 | 600 to 5800 | –

— patent publication US8053460B2, “Indole derivatives having antitumor activity” (Sigma-Tau Industrie Farmaceutiche Riunite S.p.A., priority 2005, dated 2011)
